Results from patent US20070117743A1, “New antitumoral compounds” (priority 2003, published 2007).
Read-outs that look alike come from different tables or passages of the source. Where a SMILES comes first, the peptide text is derived from it. Bridges are numbered along the chain shown (N, C = ends). [ ]: non-standard residue; d: D form. The star is where a group is joined. d(aIle) = CC[C@H](C)[C@@H](N)C(=O)O; d(aThr) = C[C@@H](O)[C@@H](N)C(=O)O; Hexanoyl(5-Me) = CC(C)CCCC(=O)*; Orn = NCCC[C@H](N)C(=O)O

Assays:
Format in all cases: cell-based, human
HT-29 = experiment: SRB colorimetric assay of cell growth and viability, HT-29; settings: 48 hours exposure; for GI50: read-out: GI50 HT-29; for CC50: read-out: LC50 HT-29
A-549 = experiment: SRB colorimetric assay of cell growth and viability, A-549; settings: 48 hours exposure; for GI50: read-out: GI50 A-549; for CC50: read-out: LC50 A-549
LoVo = experiment: SRB colorimetric assay of cell growth and viability, LoVo; settings: 48 hours exposure; for CC50: read-out: LC50 LOVO
HeLa-APL = experiment: SRB colorimetric assay of cell growth and viability, HeLa-APL; settings: 48 hours exposure; for CC50: read-out: LC50 HELA-APL
IGROV-1 = experiment: SRB colorimetric assay of cell growth and viability, IGROV-1; settings: 48 hours exposure
SK-BR-3 = experiment: SRB colorimetric assay of cell growth and viability, SK-BR-3; settings: 48 hours exposure
IGROV-ET = experiment: SRB colorimetric assay of cell growth and viability, IGROV-ET; settings: 48 hours exposure; for CC50: read-out: LC50 IGROV-ET
DU-145 = experiment: SRB colorimetric assay of cell growth and viability, DU-145; settings: 48 hours exposure
LNCaP = experiment: SRB colorimetric assay of cell growth and viability, LNCaP; settings: 48 hours exposure; for GI50: read-out: GI50 LN-caP; for CC50: read-out: LC50 LN-caP
K-562 = experiment: SRB colorimetric assay of cell growth and viability, K-562; settings: 48 hours exposure; for CC50: read-out: LC50 K-562
LoVo-Dox = experiment: SRB colorimetric assay of cell growth and viability, LoVo-Dox; settings: 48 hours exposure; for CC50: read-out: LC50 LOVO-DOX
Procedure, shortened: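 After 48 hours continuous exposure to samples spanning 10 to 10^−8 μg/mL, biomass was quantified by sulforhodamine B staining of TCA-fixed cells (OD 490 nm). Cells, 5×10^3 per well in RPMI 1640 10% FBS, had attached 18 hours first; GI, TGI and LC derived from triplicate wells.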

SK-MEL-28 = experiment: SRB colorimetric assay of cell growth and viability, SK-MEL-28; settings: 48 hours exposure; for CC50: read-out: LC50 MEL-28
PANC-1 = experiment: SRB colorimetric assay of cell growth and viability, PANC-1; settings: 48 hours exposure; for CC50: read-out: LC50 PANC-1
HeLa = experiment: SRB colorimetric assay of cell growth and viability, HeLa; settings: 48 hours exposure; for CC50: read-out: LC50 HELA

For `CC[C@H](C)[C@@H](NC(=O)[C@H](CCCN)NC(=O)[C@H]1CCCN1C(=O)[C@H](NC(=O)[C@@H](NC(=O)[C@@H](NC(=O)[C@H](NC(=O)CCCC(C)C)C(C)C)[C@@H](C)O)C(C)C)C(C)C)C(=O)N[C@H]1C(=O)N[C@H]([C@@H](C)CC)C(=O)N[C@H](C(C)C)C(=O)N[C@@H](Cc2ccccc2)C(=O)NCC(=O)N[C@@H](C(C)C)C(=O)O[C@@H]1C` [Compound 65, [Gly^2]-KF] ({Hexanoyl(5-Me)}-[dV]TV[dV][dP][Orn][d(aIle)][d(aThr)][d(aIle)][dV]FGV; ester 8-C), the “TGI HT-29” value (HT-29; SRB) was 2.54E−06 Molar, the GI50 (HT-29; SRB) was 1230 nM and the CC50 (HT-29; SRB) was 5280 nM. The “TGI A-549” value (A-549; SRB) was 4.99E−06 Molar, the GI50 (A-549; SRB) was 1950 nM and the CC50 (A-549; SRB) was no less than 6890 nM. For the same compound, the GI50 (LoVo; SRB) was 1030 nM, the “TGI LOVO” value (LoVo; SRB) was 1.98E−06 Molar and the CC50 (LoVo; SRB) was 3810 nM. The GI50 (HeLa-APL; SRB) was 2230 nM, the “TGI HELA-APL” value (HeLa-APL; SRB) was 6.89E−06 Molar and the CC50 (HeLa-APL; SRB) was no less than 6890 nM. For the same compound, the GI50 (IGROV-1) was 1440 nM, the LC50 (concentration causing 50% net cell killing) (IGROV-1) was 4960 nM and the “TGI IGROV” value (IGROV-1) was 2.67E−06 Molar. The GI50 (SK-BR-3) was 1160 nM, the LC50 (SK-BR-3) was 4190 nM and the “TGI SK-BR-3” value (SK-BR-3) was 2.21E−06 Molar. For the same compound, the GI50 (IGROV-ET) was 806 nM, the “TGI IGROV-ET” value (IGROV-ET) was 1.69E−06 Molar and the CC50 (IGROV-ET) was 3560 nM. For the same compound, the GI50 (DU-145) was 1170 nM, the LC50 (concentration causing 50% net cell kill) (DU-145) was 4440 nM and the “TGI DU-145” value (DU-145) was 2.28E−06 Molar. For the same compound, the “TGI LN-caP” value (LNCaP) was 6.89E−06 Molar, the GI50 (LNCaP) was 3480 nM and the CC50 (LNCaP) was no less than 6890 nM. For the same compound, the GI50 (K-562; SRB) was 3000 nM, the “TGI K-562” value (K-562; SRB) was 6.89E−06 Molar and the CC50 (K-562; SRB) was no less than 6890 nM. The GI50 (LoVo-Dox; SRB) was 557 nM, the “TGI LOVO-DOX” value (LoVo-Dox; SRB) was 1.53E−06 Molar and the CC50 (LoVo-Dox; SRB) was 3810 nM. The GI50 (SK-MEL-28) was 1430 nM, the “TGI MEL-28” value (SK-MEL-28) was 3.39E−06 Molar and the CC50 (SK-MEL-28) was no less than 6890 nM. The GI50 (PANC-1; SRB) was no less than 6890 nM, the “TGI PANC-1” value (PANC-1; SRB) was 6.89E−06 Molar and the CC50 (PANC-1; SRB) was no less than 6890 nM. For the same compound, the GI50 (HeLa; SRB) was 1210 nM, the “TGI HELA” value (HeLa; SRB) was 1.99E−06 Molar and the CC50 (HeLa; SRB) was 3260 nM.

In the case of `C/C=C1\NC(=O)[C@H](Cc2ccccc2)NC(=O)[C@@H](C(C)C)NC(=O)[C@@H]([C@@H](C)CC)NC(=O)[C@H](NC(=O)[C@H](NC(=O)[C@H](CCCN)NC(=O)[C@H]2CCCN2C(=O)[C@H](NC(=O)[C@@H](NC(=O)[C@@H](NC(=O)[C@H](NC(=O)CCCCCCC)C(C)C)[C@@H](C)O)C(C)C)C(C)C)[C@@H](C)CC)[C@@H](C)OC(=O)[C@H](C(C)C)NC1=O` [Compound 18, [Oct^14]-KF], the “TGI HT-29” value (HT-29) is reported as 3.22E−07 Molar, the GI50 (HT-29) is reported as 201 nM and the CC50 (HT-29) is reported as 536 nM. The “TGI A-549” value (A-549) was 2.82E−07 Molar, the GI50 (A-549) was 134 nM and the CC50 (A-549) was 1210 nM. For the same compound, the GI50 (LoVo) was 188 nM, the “TGI LOVO” value (LoVo) was 2.68E−07 Molar and the CC50 (LoVo) was 402 nM. For the same compound, the GI50 (HeLa-APL) was 536 nM, the “TGI HELA-APL” value (HeLa-APL) was 1.07E−06 Molar and the CC50 (HeLa-APL) was 3350 nM. For the same compound, the GI50 (IGROV-1) was 168 nM, the LC50 (concentration causing 50% net cell killing) (IGROV-1) was 1070 nM and the “TGI IGROV” value (IGROV-1) was 3.02E−07 Molar. For the same compound, the GI50 (SK-BR-3) was 121 nM, the LC50 (SK-BR-3) was 536 nM and the “TGI SK-BR-3” value (SK-BR-3) was 3.02E−07 Molar. For the same compound, the GI50 (IGROV-ET) was 147 nM, the “TGI IGROV-ET” value (IGROV-ET) was 3.02E−07 Molar and the CC50 (IGROV-ET) was 2010 nM. The GI50 (DU-145) was 149 nM, the LC50 (concentration causing 50% net cell kill) (DU-145) was 1470 nM and the “TGI DU-145” value (DU-145) was 6.70E−07 Molar. The “TGI LN-caP” value (LNCaP) was 1.34E−06 Molar, the GI50 (LNCaP) was 402 nM and the CC50 (LNCaP) was 3350 nM. For the same compound, the GI50 (K-562) was 2410 nM, the CC50 (K-562) was 4020 nM and the GI50 (LoVo-Dox) was 107 nM. The “TGI LOVO-DOX” value (LoVo-Dox) was 1.68E−07 Molar, the CC50 (LoVo-Dox) was 335 nM and the GI50 (SK-MEL-28) was 670 nM. For the same compound, the “TGI MEL-28” value (SK-MEL-28) was 1.14E−06 Molar, the CC50 (SK-MEL-28) was 1680 nM and the GI50 (PANC-1) was 2010 nM. For the same compound, the “TGI PANC-1” value (PANC-1) was 3.35E−06 Molar, the CC50 (PANC-1) was 6030 nM and the GI50 (HeLa) was 288 nM. For the same compound, the “TGI HELA” value (HeLa) was 8.04E−07 Molar and the CC50 (HeLa) was 1680 nM.

For `C/C=C1\NC(=O)[C@H](Cc2ccccc2)NC(=O)[C@@H](C(C)C)NC(=O)[C@@H]([C@@H](C)CC)NC(=O)[C@H](NC(=O)[C@H](NC(=O)[C@H](CCCCN)NC(=O)[C@H]2CCCN2C(=O)[C@H](NC(=O)[C@@H](NC(=O)[C@@H](NC(=O)[C@H](NC(=O)CC[C@@H](C)CC)C(C)C)[C@@H](C)O)C(C)C)C(C)C)[C@@H](C)CC)[C@@H](C)OC(=O)[C@H](C(C)C)NC1=O` [Compound 30, [Lys^8, (4S)-MeHex^14]-KF], the “TGI HT-29” value (HT-29) was 2.99E−07 Molar, the GI50 (HT-29) was 173 nM and the CC50 (HT-29) was 517 nM. The “TGI A-549” value (A-549) was 2.24E−06 Molar, the GI50 (A-549) was 1040 nM and the CC50 (A-549) was 4810 nM. For the same compound, the GI50 (LoVo) was 135 nM, the “TGI LOVO” value (LoVo) was 2.45E−07 Molar and the CC50 (LoVo) was 444 nM. For the same compound, the GI50 (HeLa-APL) was 677 nM, the “TGI HELA-APL” value (HeLa-APL) was 1.76E−06 Molar and the CC50 (HeLa-APL) was 4580 nM. For the same compound, the GI50 (IGROV-1) was 205 nM, the LC50 (concentration causing 50% net cell killing) (IGROV-1) was 1090 nM and the “TGI IGROV” value (IGROV-1) was 3.87E−07 Molar. The GI50 (SK-BR-3) was 159 nM, the LC50 (SK-BR-3) was 579 nM and the “TGI SK-BR-3” value (SK-BR-3) was 3.04E−07 Molar. For the same compound, the GI50 (IGROV-ET) was 192 nM, the “TGI IGROV-ET” value (IGROV-ET) was 3.50E−07 Molar and the CC50 (IGROV-ET) was 637 nM. The GI50 (DU-145) was 329 nM, the LC50 (concentration causing 50% net cell kill) (DU-145) was 4200 nM and the “TGI DU-145” value (DU-145) was 1.15E−06 Molar. For the same compound, the “TGI LN-caP” value (LNCaP) was 1.72E−06 Molar, the GI50 (LNCaP) was 804 nM and the CC50 (LNCaP) was 3680 nM. For the same compound, the GI50 (K-562) was 1020 nM, the “TGI K-562” value (K-562) was 2.28E−06 Molar and the CC50 (K-562) was 5070 nM. For the same compound, the GI50 (LoVo-Dox) was 164 nM, the “TGI LOVO-DOX” value (LoVo-Dox) was 3.24E−07 Molar and the CC50 (LoVo-Dox) was 639 nM. For the same compound, the GI50 (SK-MEL-28) was 1190 nM, the “TGI MEL-28” value (SK-MEL-28) was 2.39E−06 Molar and the CC50 (SK-MEL-28) was 4780 nM. The GI50 (PANC-1) was 2170 nM, the “TGI PANC-1” value (PANC-1) was 5.28E−06 Molar and the CC50 (PANC-1) was 6700 nM. For the same compound, the GI50 (HeLa) was 212 nM, the “TGI HELA” value (HeLa) was 5.42E−07 Molar and the CC50 (HeLa) was 2470 nM.
